Patent publication US20260169011A1, “METHODS AND COMPOSITIONS FOR PROVIDING CUSTOMIZED NUTRITIONAL SUPPLEMENTS” (Vibrant Holdings LLC, priority 2023, published 2026)
Where two headings read alike, the source gives them in different places.

Experiments:
[1] = NutriPro test: serum, RBC and WBC nutrient values before and after ATB / customized blend; assay type: in vivo, human; conditions: for Pre-test biomarker level: before ATB; for Follow-up Nutrient Level / Actual Nutrient Value (ANV): person three; for Actual Nutrient Value (ANV): before customized blend
Source text: The method for providing a nutritional supplement for a subject as disclosed herein is based on a comprehensive panel that assesses intracellular and extracellular levels of at least or up to 41 nutrients. […] Blood analysis using the method disclosed herein tests for nutrient levels in serum, red blood cells (RBCs), and white blood cells (WBCs). Additional genetic testing can assess patients' predispositions toward nutrient deficiencies. Based on the blood and genetic analysis results, a subsequent supplementation diet comprising supplements and food sources can be designed and implemented. The subject can be a human subject.
(§1) In some embodiments, the detection method is mass spectrometry.
The ‘NutriPro’ test is used to assess serum (extracellular), RBC, and WBC (intracellular) nutrient values along with genetic testing for any predispositions with could be affecting nutrient values in the body. If required, additional tests such as the gut zoomer, cardiovascular health, thyroid test, kidney function test, liver function test, etc, are carried out. FIG. 1 provides a schematic diagram of the process of the NutriPro test from the individual subject to the creation of customized nutritional blends.
The ATB is given to the individual for nutritional supplementation, and blood testing for nutrients in serum, RBC, and WBC is carried out after 3 or 6 months.
The assessed change is called the VAF.
After testing, the individual takes the ATB or the customized blend for the amount of time indicated.

[2] = Intracellular (RBC / WBC, cellular) nutrient levels by mass spectrometry; assay type: in vivo, human; conditions: Level: Cells, person; for Follow-up Nutrient Level: after customized blend; for Actual Nutrient Value (ANV): before customized blend
Source text: as §1

[3] = cited from earlier work
[4] = Extracellular (serum) nutrient levels by mass spectrometry (LC-MS, GC-MS, ICP-MS); conditions: for Follow-up Nutrient Level / Actual Nutrient Value (ANV): Level: Serum, person; for Follow-up Nutrient Level: after customized blend; for Actual Nutrient Value (ANV): before customized blend
Source text: In some embodiments, the detection method assesses nutrients both in extracellular plasma and intracellular in RBC and WBC. In some embodiments, the detection method is mass spectroscopy-based. The extracellular and intracellular nutrient levels provide a comprehensive analysis of a subject's nutrient status, reflecting not only the intake levels but also the absorption levels into the cells.
In some aspects, the extracellular nutrient levels provide a snapshot of the status of nutrient baseline levels at a given time. It is a reflection of a person's diet over a narrow period of time. In contrast, the intracellular levels of nutrients provide information on the absorbed levels of nutrients, thus accounting for factors such as aging, lifestyle, chronic illness, medication, etc. that could interfere with absorption and can change the functional nutritional levels.
In some embodiments, the detection method is mass spectrometry. In some embodiments, the detection method is Liquid chromatography-mass spectrometry (LC-MS), Gas chromatography-mass spectrometry (GC-MS), or Inductively coupled plasma-mass-spectrometry (ICP-MS). In some embodiments, the detection method is Liquid chromatography-mass spectrometry (LC-MS). In some embodiments, the detection method is Gas chromatography-mass spectrometry (GC-MS). In some embodiments, the detection method is Inductively coupled plasma-mass-spectrometry (ICP-MS).
In some embodiments, the method provided herein evaluates nutrient levels, both in extracellular serum and inside (intracellular) red blood cells (RBC) and/or white blood cells (WBC). The extracellular nutrient levels provide a snapshot of the status of nutrient baseline levels at a given time. These extracellular nutrient levels are a reflection of a person's diet over a narrow period of time. In contrast, RBCs have a normal lifespan of 120 days, and thus intracellular assessments for nutrients in RBCs can provide information on nutrients over longer periods. Additionally, the intracellular levels of nutrients provide information on the absorbed levels of nutrients, thus accounting for factors such as, but not limited to, aging, lifestyle, chronic illness, and medication, that can interfere with absorption and can change the functional nutritional levels. Moreover, actual nutrient utilization occurs inside the cell owing to cellular metabolic processes. At times, nutrients could be present in serum, but poor cellular uptake may result in cells being devoid of these nutrients, thus giving rise to nutrient deficiencies owing to affected cellular activities. […] As a result, it is important to assess nutrients intracellularly in addition to extracellularly. Thus, the intracellular assessment provides information on cellular uptake and utilization of nutrients at the most fundamental level, enabling understanding of the root cause of nutrient deficiencies.
The subject individual fills out the health questionnaire (PHQ) which helps establishes factors such as symptoms, complications, comorbidities, and ongoing medications. The subject's blood is drawn and the extracellular serum and intracellular blood cells are tested for nutritional deficiencies via mass spectroscopy (e.g., Liquid chromatography-mass spectrometry (LC-MS), Gas chromatography-mass spectrometry (GC-MS), or Inductively coupled plasma-mass-spectrometry (ICP-MS)).

[5] = Vibrant Absorption Factor (VAF): difference of post- and pre-supplementation nutrient values divided by ATB dosage
[6] = Zone Approach: nutrient zone (Zone 1-5), target nutrient zone and follow-up zone; assay type: in vivo, human; conditions: Example 4: person three bodybuilder, Zone Approach, CB followed for three months; named nutrients are the exceptions that did not reach the TNZ
Source text: The second exemplary approach includes determining nutrient zones, and thus is referred to as the “Zone Approach.” According to some embodiments, the nutrient reference range for individuals can be divided into a number of zones, each indicating a nutrient wellness level. […] In some embodiments, for a given nutrient, each zone is associated with a specific multiplication factor, which can be used to determine the appropriate dosage for the CB. A few exemplary methods following this Zone Approach are further described hereinafter. […] Based on the assessment results, the current zone for each nutrient is determined at step 420a. In some embodiments, the genetic predispositions and cellular levels may influence the determination of the overall zone for a nutrient. […] This adjustment accounts for the impact of genetic polymorphisms and suboptimal cellular levels, each reducing the nutrient's zone by one or more zones. Therefore, this approach takes one or more of cellular and serum nutrient levels, along with their nutrient genetic profile into consideration to determine a given nutrient's overall zone. In the next, the Target Nutrient Zone (TNZ) to which the individual's each nutrient level is to be optimized is determined at step 430. […] In some embodiments, the determined TNZ is used to determine the multiplication factor used to adjust the starting dosage at step 440a, resulting in the CB dosage for each nutrient. In various embodiments, the multiplication factor is a fixed constant value, previously determined for a nutrient when moving from a first zone to a second zone. […] At step 450a, the CB with the determined nutrient dosages is administered to the individual for a predefined period. In some embodiments, a follow-up test is periodically conducted at step 460, to monitor the progress towards the target nutrient levels during the predefined period, for example, to check whether a target zone is reached or not for a given nutrient. In some embodiments, based on the results from the follow-up tests, it is further determined whether the dosage of the CB for a nutrient requires adjustment. If the adjustment is necessary, appropriate modification is made to the CB, for example, by increasing the TNZ to increase the nutrient levels. The modified CB is administered to the individual, and a reassessment is conducted again. In some embodiments, the personalized dosage of the nutritional supplement in the CB is modified as above after the at least one, two, three, four, five, six, seven, eight, nine, ten, or more repeats.

[7] = person one, serum, after customized blend

SMILES: [Ca] [Calcium]
- Post-test biomarker level ([1]; person one, serum, after ATB): 7.3 mg/dL
- Follow-up Biomarker level [1, 7]: 10.4 mg/dL
- Pre-test biomarker level ([1]; person one, serum): 6.5 mg/dL
- Post-test biomarker level ([1]; person two, serum, after ATB): 5.9 mg/dL
- Follow-up Biomarker level ([1]; person two, serum, after customized blend): 10.42 mg/dL
- Pre-test biomarker level ([1]; person two, serum): 5.4 mg/dL
- Follow-up Nutrient Level [2]: 4.2 ng/MM WBC
- Actual Nutrient Value (ANV) [2]: 4.2 ng/MM WBC
- UTL ([3]; Table 18, person one): 2,500 mg/day
- UTL ([3]; Table 19, person two): 2,500 mg/day
- UTL ([3]; upper tolerable limit): 2,500 mg/day
- Follow-up Nutrient Level [4]: 6.2 mg/dL
- Actual Nutrient Value (ANV) [4]: 3.1 mg/dL
- VAF ([5]; person one, serum): 0.8
- VAF ([5]; person two, serum): 0.5

SMILES: [Cu] [Copper]
- Post-test biomarker level ([1]; person one, serum, after ATB): 0.09 mg/dL
- Follow-up Biomarker level [1, 7]: 0.169 mg/dL
- Pre-test biomarker level ([1]; person one, serum): 0.02 mg/dL
- UTL ([3]; Table 18, person one): 10 mg/day
- Follow-up Nutrient Level [4]: 0.05 mg/dL
- Actual Nutrient Value (ANV) [4]: 0.01 mg/dL
- VAF ([5]; person one, serum): 8.75

SMILES: CC/C=C\C/C=C\C/C=C\C/C=C\C/C=C\C/C=C\CCC(=O)O [DHA]
- Post-test biomarker level ([1]; person two, cells, after ATB, unit not given): 1.9
- Follow-up Biomarker level ([1]; person two, cells, after customized blend, unit not given): 9.4
- Pre-test biomarker level ([1]; person two, cells, unit not given): 1.2
- Follow-up Nutrient Level ([2]; unit not given): 0.9
- Actual Nutrient Value (ANV) ([2]; unit not given): 0.9
- VAF ([5]; person two, cells): 0.14

SMILES: CC/C=C\C/C=C\C/C=C\C/C=C\C/C=C\CCCC(=O)O [EPA]
- Post-test biomarker level ([1]; person one, cells, after ATB, unit not given): 0.87
- Follow-up Biomarker level ([1]; person one, cells, after customized blend, unit not given): 2.1
- Pre-test biomarker level ([1]; person one, cells, unit not given): 0.1
- Follow-up Nutrient Level ([2]; unit not given): 0.05
- Actual Nutrient Value (ANV) ([2]; unit not given): 0.05
- VAF ([5]; person one, cells): 0.154

SMILES: Nc1nc2ncc(CNc3ccc(C(=O)N[C@@H](CCC(=O)O)C(=O)O)cc3)nc2c(=O)[nH]1 [Folate]
- Follow-up Biomarker level ([1]; female, human, in vivo): 0.00145 mg/dL
- Post-test biomarker level ([1]; female, human, in vivo): 0.00033 mg/dL
- Post-test biomarker level ([1]; person one, serum, after ATB): 0.00028 mg/dL
- Follow-up Biomarker level [1, 7]: 0.00143 mg/dL
- Pre-test biomarker level ([1]; person one, serum): 0.00012 mg/dL
- Pre-test biomarker level ([1]; person two, serum): 9e-05 mg/dL
- Actual Nutrient Value (ANV) [4]: 8e-05 mg/dL
- concentration at 3 months ([4]; female, human, serum): 1.2 ng/mL
- VAF ([5]; person one, serum): 0.032
- VAF ([5]; person two, serum): 0.048

SMILES: [Fe] [Iron]
- Follow-up Nutrient Level ([1]; cells, after customized blend): 114.1 mg/dL
- Actual Nutrient Value (ANV) ([1]; cells): 62 mg/dL
- Follow-up Nutrient Level ([1]; serum, after customized blend): 0.141 mg/dL
- Actual Nutrient Value (ANV) ([1]; serum): 0.022 mg/dL
- Follow-up Nutrient Level [2]: 76.5 mg/dL
- Actual Nutrient Value (ANV) [2]: 76.5 mg/dL
- UTL ([3]; Table 20, person three): 45 mg/day
- Follow-up Nutrient Level [4]: 0.019 mg/dL
- Actual Nutrient Value (ANV) [4]: 0.014 mg/dL

SMILES: N[C@@H](CO)C(=O)O [L-Serine]
- UTL ([3]; upper tolerable limit): 12000 mg/day
- Follow-up Nutrient Level [4]: 51 nmol/mL
- Actual Nutrient Value (ANV) [4]: 44 nmol/mL

SMILES: CCCCC/C=C\C/C=C\CCCCCCCC(=O)O [LA, linoleic acid]
- nutrient levels reaching their TNZ at follow-up testing [6]: supposed to reach the higher Zone 5
